Experimental data: ChEMBL document CHEMBL1201862, “PubChem BioAssay data set” (2004)
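Protocol summary: plate cells (96-well), add compound at 5 concentrations, incubate 48 h, interpolate endpoints linearly. The concentration for 50% growth inhibition is given as GI50.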 Active and inactive are the calls of the source. Cut-off read from the data, not from the text of the source: active = GI50 up to about 1.1 µM and inactive = higher. Non-standard residues stand in square brackets, D forms with d. Residues, ends and D or L forms follow the SMILES beside them. β3hI = CC[CH](C)[CH](N)CC(=O)O

How the values were obtained:
Assay in all cases: DTP human tumour cell line panel, 48 h
SNB-19 = system: SNB-19
DU-145 = system: DU-145
IGROV-1 = system: IGROV-1
MDA-N = system: MDA-N
Malme-3M = system: Malme-3M
EKVX = system: EKVX
K562 = system: K562
SNB-75 = system: SNB-75
Hs-578T = system: Hs-578T
MDA-MB-231 = system: MDA-MB-231
A498 = system: A498
NCI/ADR-RES = system: NCI/ADR-RES
HOP-92 = system: HOP-92
A549 = system: A549
SF-268 = system: SF-268
NCI-H23 = system: NCI-H23
OVCAR-5 = system: OVCAR-5
CCRF-CEM = system: CCRF-CEM
HL-60 = system: HL-60

SMILES | GI50 (SNB-19) | GI50 (DU-145) | GI50 (IGROV-1) | GI50 (MDA-N) | GI50 (Malme-3M) | GI50 (EKVX) | GI50 (K562) | GI50 (SNB-75) | GI50 (Hs-578T) | GI50 (MDA-MB-231) | GI50 (A498) | GI50 (NCI/ADR-RES) | GI50 (HOP-92) | GI50 (A549) | GI50 (SF-268) | GI50 (NCI-H23) | GI50 (OVCAR-5) | GI50 (CCRF-CEM) | GI50 (HL-60)
Oc1c(Br)cc(Br)cc1CN(Cc1cc(Br)cc(Br)c1O)C1CCCCC1 | 33.6 µM (inactive) | 38 µM (inactive) | 34.1 µM (inactive) | 35.9 µM (inactive) | 21.2 µM (inactive) | 30.5 µM (inactive) | 31.6 µM (inactive) | 24.6 µM (inactive) | 17.2 µM (inactive) | 26.4 µM (inactive) | 26.7 µM (inactive) | 39.9 µM (inactive) | 32.5 µM (inactive) | 30.9 µM (inactive) | 22 µM (inactive) | 23.2 µM (inactive) | 37.6 µM (inactive) | – | –
Oc1cc(CF)nc(S)n1 | > 100 µM (inactive) | > 100 µM (inactive) | > 100 µM (inactive) | > 100 µM (inactive) | > 100 µM (inactive) | > 100 µM (inactive) | > 100 µM (inactive) | > 100 µM (inactive) | > 100 µM (inactive) | > 100 µM (inactive) | > 100 µM (inactive) | > 100 µM (inactive) | > 100 µM (inactive) | > 100 µM (inactive) | > 100 µM (inactive) | > 100 µM (inactive) | > 100 µM (inactive) | > 100 µM (inactive) | –
COc1ccc(OC)c2sc(N3C(=O)/C(=C/c4ccccc4S)N=C3c3ccccc3)nc12 | 69.2 µM (inactive) | 49.4 µM (inactive) | 90.4 µM (inactive) | 21.8 µM (inactive) | – | 32.1 µM (inactive) | 26 µM (inactive) | 16.5 µM (inactive) | 49.7 µM (inactive) | > 100 µM (inactive) | 55.5 µM (inactive) | 77.8 µM (inactive) | > 100 µM (inactive) | 42.8 µM (inactive) | 59.7 µM (inactive) | – | > 100 µM (inactive) | 22.3 µM (inactive) | 26.1 µM (inactive)
C=CCn1c(=O)c(C)cn(COCCO)c1=O | > 100 µM (inactive) | > 100 µM (inactive) | > 100 µM (inactive) | > 100 µM (inactive) | > 100 µM (inactive) | > 100 µM (inactive) | > 100 µM (inactive) | > 100 µM (inactive) | > 100 µM (inactive) | > 100 µM (inactive) | > 10 µM (inactive) | > 100 µM (inactive) | > 100 µM (inactive) | > 100 µM (inactive) | > 100 µM (inactive) | > 100 µM (inactive) | > 100 µM (inactive) | > 100 µM (inactive) | –
OCC1OC(NC(=S)NCCC(F)(F)C(F)(F)C(F)(F)C(F)(F)C(F)(F)C(F)(F)F)C(O)C(O)C1O (stereo not given) | 69.8 µM (inactive) | > 100 µM (inactive) | 65.9 µM (inactive) | > 100 µM (inactive) | > 100 µM (inactive) | – | 28.2 µM (inactive) | > 100 µM (inactive) | > 100 µM (inactive) | > 100 µM (inactive) | 18.5 µM (inactive) | > 100 µM (inactive) | 29.2 µM (inactive) | > 100 µM (inactive) | > 100 µM (inactive) | > 100 µM (inactive) | > 100 µM (inactive) | 38.3 µM (inactive) | > 100 µM (inactive)
COc1cc(C2SCC(=O)N2c2ccccn2)cc(OC)c1OC (stereo not given) | > 100 µM (inactive) | > 100 µM (inactive) | 81.1 µM (inactive) | 19 µM (inactive) | – | > 100 µM (inactive) | 48.4 µM (inactive) | – | > 100 µM (inactive) | > 100 µM (inactive) | > 100 µM (inactive) | 39.6 µM (inactive) | 14.2 µM (inactive) | > 100 µM (inactive) | > 100 µM (inactive) | > 100 µM (inactive) | > 100 µM (inactive) | > 100 µM (inactive) | 58.7 µM (inactive)
CN(C)c1c(C2OC(CO)C(O)C2O)c(=O)c1=O (stereo not given) | > 100 µM (inactive) | > 100 µM (inactive) | > 100 µM (inactive) | > 100 µM (inactive) | > 100 µM (inactive) | > 100 µM (inactive) | > 100 µM (inactive) | > 100 µM (inactive) | > 100 µM (inactive) | > 100 µM (inactive) | > 100 µM (inactive) | > 100 µM (inactive) | > 100 µM (inactive) | > 100 µM (inactive) | > 100 µM (inactive) | > 100 µM (inactive) | > 100 µM (inactive) | 82.2 µM (inactive) | –
COc1ccc2c(cnc3c4cc(OC)c(OC)cc4ccc23)c1 | > 100 µM (inactive) | > 100 µM (inactive) | > 100 µM (inactive) | > 100 µM (inactive) | > 100 µM (inactive) | > 100 µM (inactive) | > 100 µM (inactive) | – | > 100 µM (inactive) | > 100 µM (inactive) | > 100 µM (inactive) | > 100 µM (inactive) | > 100 µM (inactive) | > 100 µM (inactive) | > 100 µM (inactive) | > 100 µM (inactive) | > 100 µM (inactive) | > 100 µM (inactive) | > 100 µM (inactive)
O=C(CCC(=O)c1ccc(Cl)cc1)NO | > 100 µM (inactive) | > 100 µM (inactive) | > 100 µM (inactive) | > 100 µM (inactive) | – | > 100 µM (inactive) | > 100 µM (inactive) | > 100 µM (inactive) | > 100 µM (inactive) | > 100 µM (inactive) | > 100 µM (inactive) | > 100 µM (inactive) | > 100 µM (inactive) | > 100 µM (inactive) | > 100 µM (inactive) | > 100 µM (inactive) | > 100 µM (inactive) | > 100 µM (inactive) | > 100 µM (inactive)
O=C(c1ccccc1)n1cc(-c2ccccc2)c2c(=O)nc[nH]c21 | > 100 µM (inactive) | > 100 µM (inactive) | > 100 µM (inactive) | > 100 µM (inactive) | > 100 µM (inactive) | > 100 µM (inactive) | – | 17.4 µM (inactive) | > 100 µM (inactive) | > 100 µM (inactive) | > 100 µM (inactive) | > 100 µM (inactive) | > 100 µM (inactive) | > 100 µM (inactive) | > 100 µM (inactive) | > 100 µM (inactive) | > 100 µM (inactive) | > 100 µM (inactive) | –
CC(NC(=O)C(Cc1ccc(OC(=O)c2ccccc2)cc1)NC(=O)OC(C)(C)C)C(=O)NCC(=O)NC(Cc1ccccc1)C(=O)NN (stereo not given) | 45.6 µM (inactive) | > 100 µM (inactive) | 25.4 µM (inactive) | 37.1 µM (inactive) | 64.9 µM (inactive) | > 100 µM (inactive) | 20 µM (inactive) | 25.6 µM (inactive) | 32.7 µM (inactive) | 37.9 µM (inactive) | 15 µM (inactive) | > 100 µM (inactive) | 98.2 µM (inactive) | > 100 µM (inactive) | 54.6 µM (inactive) | 74.5 µM (inactive) | > 100 µM (inactive) | – | 16 µM (inactive)
O=[N+]([O-])c1ccc(/N=N/c2c(O)ccc3cc(S(=O)(=O)O)cc(S(=O)(=O)O)c23)cc1 | > 100 µM (inactive) | > 100 µM (inactive) | > 100 µM (inactive) | > 100 µM (inactive) | > 100 µM (inactive) | > 100 µM (inactive) | > 100 µM (inactive) | > 100 µM (inactive) | > 100 µM (inactive) | > 100 µM (inactive) | > 100 µM (inactive) | > 100 µM (inactive) | > 100 µM (inactive) | > 100 µM (inactive) | > 100 µM (inactive) | > 100 µM (inactive) | > 100 µM (inactive) | > 100 µM (inactive) | –
COc1cc2c(/C=C3/C(=O)Nc4ccccc43)c(Cl)[nH]c2cc1C | 0.0486 µM (active) | 0.0955 µM (active) | 0.034 µM (active) | 0.0191 µM (active) | – | 0.0521 µM (active) | 0.0601 µM (active) | 0.192 µM (active) | 0.0427 µM (active) | 0.0893 µM (active) | 0.0632 µM (active) | 0.0263 µM (active) | 1.43 µM (inactive) | 0.0619 µM (active) | 0.0644 µM (active) | 0.0407 µM (active) | 0.129 µM (active) | 0.0583 µM (active) | 0.035 µM (active)
CN(C)CCn1c(=O)c2ccc3c4c(nn3CCN(C)C)c3cc([N+](=O)[O-])ccc3n(c1=O)c24 | 0.0438 µM (active) | 0.0508 µM (active) | 0.0708 µM (active) | 0.0724 µM (active) | 0.328 µM (active) | 0.115 µM (active) | 0.0394 µM (active) | – | 0.144 µM (active) | 0.0929 µM (active) | 0.317 µM (active) | 0.0859 µM (active) | 0.8 µM (active) | 0.0264 µM (active) | < 0.0256 µM (active) | 0.105 µM (active) | < 0.0253 µM (active) | < 0.0125 µM (active) | 0.09 µM (active)
CCC(C)C(CC(=O)N1CCCC1C(=O)NC(C(=O)NC(C(=O)NCC(=O)NC(CC(N)=O)C(=O)NC(C(=O)NC(C(=O)NC(CCCCN)C(N)=O)C(C)CC)C(C)CC)C(C)C)C(C)CC)NC(=O)C(N)C(C)CC (stereo not drawn) (H-I[β3hI]PIVGNIIK-NH2; configuration not given here) | > 50 µM (inactive) | > 50 µM (inactive) | > 50 µM (inactive) | > 50 µM (inactive) | > 50 µM (inactive) | > 50 µM (inactive) | – | – | > 50 µM (inactive) | > 50 µM (inactive) | > 50 µM (inactive) | > 50 µM (inactive) | > 50 µM (inactive) | > 50 µM (inactive) | > 50 µM (inactive) | > 50 µM (inactive) | > 50 µM (inactive) | 10.5 µM (inactive) | > 50 µM (inactive)
